Patent US11786597B2, “Ionic liquids for transdermal drug delivery” (priority 2013, dated 2023)
Read-outs that look alike come from different tables or passages of the source. Marks after values point to notes of the source that are not given here.

How the values were obtained:
[1] = Determination of lipophilicity (octanol/water distribution by UV absorbance); format: physicochemical; details: for percent in octanol: after extraction with water
Protocol: A 250 mL volume of n-octanol was shaken with 100 mL of ddH2O and left overnight. […]
The absorption of the octanol layer and water layers were measured and compared with the absorbance of the stock solutions. Measurements were repeated three times and the distribution coefficients were reported as the average. The percent of IL in octanol was calculated as the absorbance of the octanol layer after extraction divided by the absorbance of IL in octanol before extraction. The water/octanol distribution coefficient was calculated as the logarithm of the percent of IL in octanol divided by the percent of IL in water.

[2] = test system: Normal human bronchial epithelial (NHBE) cells; test: WST-1 proliferation assay, 24 h exposure to diluted ILs; details: solubilized in culture medium
Protocol: Normal human bronchial epithelial (NHBE) cells were purchased (Lonza, Walkersville, MD) and cultured using bronchial epithelial cell growth media (BEGM, Clonetics Bullet Kit, Lonza, Walkersville, MD) on 100 mm tissue culture treated Petri dishes (Santa Cruz Biotechnologies, Santa Cruz, CA) coated with 50 μg/mL type I rat tail collagen (BD Biosciences, Bedford, MA). Cells were stored in an incubator with a humidified atmosphere at 37° C. and 5% CO2. Cells were fed two times weekly and passaged via trypsinization. Experimentation was performed in triplicate on cells harvested from passages 3 to 7.
NHBE cells were plated in 96-well tissue culture plates at a concentration of 1.5×10^4 cells/well in a volume of 200 μL and allowed to acclimate overnight. On the day of experimentation, treatment plates were prepared using stock ionic liquid diluted in BEGM and then serially diluted 3-fold for a total of 7 concentrations. The 96-well plates containing cells were then aspirated and the treatments (150 μL/well) were carefully transferred from the prep plate to the cells. Cells were exposed to the ionic liquids for 24 hours. Two hours prior to the end of the exposure time, positive control cell wells were aspirated, and a solution of 1% Triton-100 (150 μL/well) was added.
To assess cellular proliferation, water-soluble tetrazolium (WST-1) reagent (Clontech, Mountain View, CA) was added directly to cells, at a 1:10 dilution of the remaining media volume (7.5 μL of WST-1 reagent was added per 75 μL remaining cell culture media). NHBE cells exposed to media only and 1% Triton in BEGM were included as controls. Ionic liquid controls at the highest concentrations tested were included in wells without cells to rule out ionic liquid/assay reagent interference.

[3] = Viscosity (Viscolab 3000 viscometer); format: physicochemical
Protocol: Viscosity was measured on 1 mL samples with a Viscolab 3000 viscometer (Cambridge Viscosity, Medford, MA). […] Low-temperature differential scanning calorimetry (DSC) was performed on a DSC882e instrument (Mettler-Toledo Inc., Columbus, Ohio) under N2 atmosphere over two complete scans of a temperature range of −60 to 120° C. with a ramp rate of 10° C. per minute and a sample size of 18-21 mg in an aluminum crucible.

[4] = Conductivity of neat IL; format: physicochemical
Protocol: (§1) Determinations of conductivity were made on an ION450 benchtop meter (Radiometer Analytical) with a 2-pole electrode designed for use in viscous liquids (Radiometer Analytical CDC241-9) and calibrated with KCl. Conductivity was measured three times per sample on stirred 3 mL volumes of neat IL at 25° C. Density was measured three times per IL using a 1 mL volumetric flask and an analytical balance.

[5] = Density (volumetric flask and balance); format: physicochemical
Protocol: as §1

[6] = Calculations of molarity and ionic strength; format: physicochemical; details: neat IL, Table 5
[7] = test system: porcine skin; test: Skin transport of 3H-Mannitol in Franz diffusion cell; format: in vitro ADME
Protocol: (§2) FIG. 1 is a schematic of the skin transport experiment set-up and analysis. Porcine skin was loaded into the Franz diffusion cell (FDC) with the stratum corneum (SC) facing up. Skin was incubated in contact with 3H-labeled drug dissolved in donor solution for 24 hrs, at 37° C., with stirring. After 24 hrs the donor solution was removed and skin thoroughly washed. The SC was separated from the epidermis by tape stripping. Ten tape strips were applied, each tape corresponding to 1 “layer” of SC. Ten tape strips were assumed to remove the entire SC. Epidermis was separated from dermis using a razor blade. Acceptor solution was collected, and drug transport into various tissue layers was quantified by scintillation counter.
3H-labeled Mannitol and Cefadroxil were obtained from American Radiolabeled Chemicals, Inc. and Moravek, respectively. FDCs were used to assess the transport enhancement of ionic liquids using a previously established protocol. Karande, et al., “Discovery of transdermal penetration enhancers by high-throughput screening”, Nat Biotechnol, 22(2): 192-7 (2004). Briefly, the acceptor chamber was filled with degassed PBS and a small stir bar added. Thawed porcine skin was clamped in place between the acceptor and donor chambers with the SC facing up. Care was taken to ensure no air bubbles resided in the acceptor chamber. Ionic liquids or PBS (control) were spiked with 3H-labeled drug (Mannitol and Cefadroxil) to a final concentration of 10 μCi/ml. 300 μL of donor solution was added to the donor chamber and incubated in contact with the SC for 24 hr, at 37° C., with stirring.
After 24 hr, the donor solution was removed, and the skin was thoroughly washed and dried.
SC was separated from epidermis by tape stripping. Ten tape strips were performed in an identical fashion, with each tape corresponding to 1 SC “layer”. Ten strips were assumed to remove the majority of the SC. Epidermis was separated from dermis with a razor blade, and the acceptor solution was collected from the acceptor chamber. Samples from each tissue layer and acceptor solution were dissolved in Soluble (Perkin Elmer, Waltham, MA) overnight and the concentration of radiolabeled solute was measured using a scintillation counter (Packard Tri-Carb 2100 TR, Meriden, CT).

[8] = Abbott et al. 2006; cited from earlier work
[9] = Solubility in water (physical characterization); details: 25° C.
[10] = test system: porcine skin; test: Skin transport of 3H-Cefadroxil in Franz diffusion cell; format: in vitro ADME; details: spiked with Cefadroxil
Protocol: as §2
3H-labeled Mannitol and Cefadroxil were obtained from American Radiolabeled Chemicals, Inc. and Moravek, respectively. FDCs were used to assess the transport enhancement of ionic liquids using a previously established protocol. Karande, et al., “Discovery of transdermal penetration enhancers by high-throughput screening”, Nat Biotechnol, 22(2): 192-7 (2004). […]
SC was separated from epidermis by tape stripping. […] Samples from each tissue layer and acceptor solution were dissolved in Soluble (Perkin Elmer, Waltham, MA) overnight and the concentration of radiolabeled solute was measured using a scintillation counter (Packard Tri-Carb 2100 TR, Meriden, CT).

Row | Compound | percent in octanol ([1]; Table 3) | viscosity ([3]; 25° C.) [cP] | viscosity ([3]; Table 5) | conductivity ([4]; 25° C.) [mS/cm] | conductivity ([4]; Table 5) | density ([5]; 25° C.) [g/mL] | density ([5]; Table 5) [g/mL] | ionic strength [6] [M] | molarity [6] [M] | further results
1 | C[N+](C)(C)CCO.NC(N)=O.NC(N)=O.[Cl-] [LANL-6, urea-choline] | 24 +/− 8% | 1390 | 1386^a cP | 0.580 | 0.580^a mS/cm | 1.21 | 1.21 | 2.32 | 4.65 | partitioning into octanol [1]: partitioned poorly into octanol; log Po/w ([1]; octanol/water, Table 3): −0.51; toxicity to human primary cells [2]: low toxicity; viscosity at 40° C. ([3]; 40° C.): 170 cP; viscosity ([3]; text b171): 1390 cP; drug permeation into the SC ([7]; 3H-Mannitol, 24 hr, 37° C.): inhibited drug permeation into the SC; viscosity, literature value at 40° C. [8]: 169 cP; solubility in water [9]: miscible
2 | choline geranate [LANL-21] | 66 +/− 3% | 1345 | 1345 cP | 0.0431 | 0.0431 mS/cm | 0.990 | 0.990 | 3.39 | 2.26 | log Po/w [1]: 0.28; conductivity ([4]; text b172): 0.04 mS/cm; loss/partitioning of solute to the acceptor solution ([7]; 3H-Mannitol): enhanced partitioning into the acceptor solution; transport enhancement into/through all layers of the skin ([7]; 3H-Mannitol, relative to PBS control): 5-15 fold; skin transport properties ([7]; materials in lower right portion of Walden plot): best skin transport properties; partitioning into the dermis and acceptor solution versus control (PBS) [10]: 15-20 times
